Patent US7176224B2, “Oxazolyl-aryloxyacetic acid derivatives and their use as PPAR agonists” (Eli Lilly and Company, priority 2000, dated 2007)

Columns and labels:
Hu apoAI transgenic mice = assay: Evaluation of triglyceride and cholesterol levels in hu apoAI transgenic mice; assay type: in vivo; details: 30 mg/kg oral gavage daily for 7 days; serum HDLc FPLC area under the curve, over mice receiving vehicle
Method: Five to six week old male mice, transgenic for human apoAI [C57B1/6-tgn(apoa1) 1rub, Jackson Laboratory, Bar Harbor, Me.] were housed five per cage (10″×20″8″ with aspen chip bedding) with food (Purina 5001) and water available at all times. After an acclimation period of 2 weeks, animals were individually identified by ear notches, weighed, and assigned to groups based on body weight. Beginning the following morning, mice were dosed daily by oral gavage for 7 days using a 20 gauge, 1½″ curved disposable feeding needle (Popper & Sons). Treatments were test compounds (30 mg/kg), a positive control (fenofibrate, 100 mg/kg) or vehicle [1% carboxymethylcellulose (w/v)/0.25% Tween80 (w/v); 0.2 ml/mouse]. Prior to termination on day 7, mice were weighed and dosed. Three hours after dosing, animals were anesthetized by inhalation of isoflurane (2–4%; Abbott Laboratories, Chicago, Ill.) and blood obtained via cardiac puncture (0.7–1.0 ml). Whole blood was transferred to serum separator tubes (Vacutainer SST), chilled on ice, and permitted to clot. Serum was obtained after centrifugation at 4° C. and frozen until analysis for triglycerides, total cholesterol, compound levels, and serum lipoprotein profile by fast protein liquid chromatography (FPLC) coupled to an inline detection system. After sacrifice by cervical dislocation, the liver, heart and epididymal fat pads were excised and weighed.
The animals dosed with vehicle had average triglycerides values of 60–80 mg/dl, which were reduced by the positive control fenofibrate (33–58 mg/dl with a mean reduction of 37%). The animals dosed with vehicle had average total serum cholesterol values of 140–180 mg/dl, which were increased by fenofibrate (190–280 mg/dl, with a mean elevation of 41%). […] increased the amount of HDLc (68–96 v-sec with a mean percent increase of 48%).
Glucose was measured colorimetrically using commercially purchased reagents (Sigma #315-500). According to the manufacturers, the procedures were modified from published work (McGowan, M. W., Artiss, J. D., Strandbergh, D. R. & Zak, B. Clin Chem, 20:470–5 (1974) and Keston, A. Specific colorimetric enzymatic analytical reagents for glucose. Abstract of papers 129th Meeting ACS, 31C (1956).); and depend on the release of a mole of hydrogen peroxide for each mole of analyte, coupled with a color reaction first described by Trinder (Trinder, P. Determination of glucose in blood using glucose oxidase with an alternative oxygen acceptor. Ann Clin Biochem, 6:24 (1969)). The absorbance of the dye produced is linearly related to the analyte in the sample. The assays were further modified in our laboratory for use in a 96 well format. Standards (Sigma #339-11, Sigma #16-11, and Sigma #CC0534 for glucose, triglycerides and total cholesterol, respectively), quality control plasma (Sigma # A2034), and samples (2 or 5 μl/well) were measured in duplicate using 200 μl of reagent. An additional aliquot of sample, pipetted to a third well and diluted in 200 μl water, provided a blank for each specimen. Plates were incubated at room temperature (18, 15, and 10 minutes for glucose, triglycerides and total cholesterol, respectively) on a plate shaker (DPC Micormix 5) and absorbance read at 500 nm (glucose and total cholesterol) or 540 nm (triglycerides) on a plate reader (Wallac Victor 1420). Sample absorbances were compared to a standard curve (100–800, 10–500, and 100–400 mg/dl for glucose, triglycerides and total cholesterol, respectively). Values for the quality control sample were always within the expected range and the coefficient of variation for samples was below 10%. All samples from an experiment were assayed at the same time to minimize inter-assay variability.
Serum lipoproteins were separated and cholesterol quantitated with an in-line detection system. Sample was applied to a Superose® 6 HR 10/30 size exclusion column (Amersham Pharmacia Biotech) and eluted with phosphate buffered saline-EDTA at 0.5 ml/min. […]

db/db mice = assay: Evaluation of glucose levels in db/db mice; assay type: in vivo; details: 30 mg/kg oral gavage daily for 7 days; 100% = glucose not differing from lean values
Method: Five week old male diabetic (db/db) mice [C57BlKs/j-m +/+ Lepr(db), Jackson Laboratory, Bar Harbor, Me.] or lean littermates (DB/?) were housed 6 per cage (10″20″8″ with aspen chip bedding) with food (Purina 5015) and water available at all times. After an acclimation period of 2 weeks, animals were individually identified by ear notches, weighed, and bled via the tail vein for determination of initial glucose levels. Blood was collected (100 μl) from unfasted animals by wrapping each mouse in a towel, cutting the tip of the tail with a scalpel, and milking blood from the tail into a heparinized capillary tube (Fisher) balanced on the edge of the bench. Sample was discharged into a heparinized microtainer with gel separator (VWR) and retained on ice. Plasma was obtained after centrifugation at 4° C. and glucose measured immediately. Remaining plasma was frozen until the completion of the experiment, when glucose and triglycerides were assayed in all samples. […]
Glucose was measured colorimetrically using commercially purchased reagents (Sigma #315-500). […] The absorbance of the dye produced is linearly related to the analyte in the sample. […] Standards (Sigma #339-11, Sigma #16-11, and Sigma #CC0534 for glucose, triglycerides and total cholesterol, respectively), quality control plasma (Sigma # A2034), and samples (2 or 5 μl/well) were measured in duplicate using 200 μl of reagent. […]

Cc1oc(-c2cccc(-c3cccs3)c2)nc1CCOc1ccc(CC(C)(Oc2ccccc2)C(=O)O)cc1 (centres unmarked) [Example 5, 2-Methyl-3-(4-{2-[5-methyl-2-(3-thiophen-2-ylphenyl)oxazol-4-yl]ethoxy}phenyl)-2-phenoxypropionic acid]
% HDLc Increase (Hu apoAI transgenic mice): 94.5%
Glucose Normalisation (db/db mice): 71%
